Assay results reported in patent publication US8466171B2, “Fused heterocyclic compounds useful as modulators of nuclear hormone receptor function” (Bristol-Myers Squibb Company, priority 2007, dated 2013).
Substitutions are numbered along the chain they refer to. pIC50, pKi: −log10 of the molar value.

How the values were obtained:
androgen receptor (AR) = target: T1, androgen receptor (AR) (Homo sapiens, UniProt P10275); test: MDA-MB-453 Androgen Receptor Transactivation Assay; type: cell-based; conditions: MDA-MB-453 cells, PSA-Luc reporter, 3 nM DHT, 48 hour incubation
T1 sequence (P10275 1-920): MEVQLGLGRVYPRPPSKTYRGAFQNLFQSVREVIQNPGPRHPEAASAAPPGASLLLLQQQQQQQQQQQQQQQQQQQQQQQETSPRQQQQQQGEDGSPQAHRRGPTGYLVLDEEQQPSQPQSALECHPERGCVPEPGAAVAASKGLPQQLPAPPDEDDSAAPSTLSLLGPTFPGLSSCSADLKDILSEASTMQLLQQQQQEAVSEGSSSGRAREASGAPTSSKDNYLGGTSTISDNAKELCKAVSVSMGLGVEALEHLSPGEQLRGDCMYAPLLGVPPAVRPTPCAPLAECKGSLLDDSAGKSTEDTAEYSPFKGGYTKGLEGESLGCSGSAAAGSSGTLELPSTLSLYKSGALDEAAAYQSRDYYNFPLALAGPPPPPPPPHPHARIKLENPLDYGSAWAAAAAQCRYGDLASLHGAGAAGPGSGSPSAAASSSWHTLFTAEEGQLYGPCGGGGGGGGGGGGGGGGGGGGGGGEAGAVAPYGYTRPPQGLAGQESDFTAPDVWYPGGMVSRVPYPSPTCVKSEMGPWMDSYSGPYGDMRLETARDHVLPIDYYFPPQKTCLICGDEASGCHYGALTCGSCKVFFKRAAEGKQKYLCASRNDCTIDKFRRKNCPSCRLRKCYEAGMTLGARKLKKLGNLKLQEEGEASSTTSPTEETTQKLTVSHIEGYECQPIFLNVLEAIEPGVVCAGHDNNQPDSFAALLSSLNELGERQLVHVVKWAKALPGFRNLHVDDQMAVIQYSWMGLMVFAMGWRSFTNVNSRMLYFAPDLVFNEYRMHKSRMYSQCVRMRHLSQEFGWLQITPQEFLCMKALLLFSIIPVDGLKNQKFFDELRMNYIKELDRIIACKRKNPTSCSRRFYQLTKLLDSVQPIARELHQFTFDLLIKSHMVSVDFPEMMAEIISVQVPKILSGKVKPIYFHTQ
Excerpt: Compounds can be tested in a cell based transactivation assay used to measure the antagonism of androgen receptor (AR) transcriptional activity. […] The human breast adenocarcinoma MDA-MB-453 cell line (American Type Culture Collection, Rockville, Md., ATCC#: HTB-131), expressing a functional endogenous wild type AR, was transiently transfected with a reporter plasmid and tested for AR dependent transactivation activity in the absence or presence of test compounds. The pGL3 PSA-Luc reporter plasmid is comprised of the cDNA for the firefly luciferase gene and the upstream promoter sequences containing the androgen response elements (AREs) of the prostate specific antigen (PSA). This plasmid functions as a reporter for the transcription-modulating activity of the AR. In order to detect antagonists, the transactivation assay is conducted in the presence of constant concentration of the natural AR hormone (DHT) to induce a defined reporter signal. Addition of increasing concentrations of the suspected antagonist will decrease the reporter signal (luciferase activity).
MDA-MB-453 and 22 RV1 cells were maintained in DMEM (Cellgro, Cat. #10-014-CM) or RPMI 1640 (Gibco Cat. #11875-085) respectively and supplemented with 10% FBS (Invitrogen/GIBCO Life Science). Cells were bulk transfected in flasks with 1.3 ug/ml pGL3 PSA-Luc plasmid by using the Lipofectamine 2000 Reagent (Invitrogen, Cat. #11668-019) and serum-free Opti-MEM I media (Invitrogen, Cat#31985-070) according to the manufacturer's optimized conditions. Transfection was conducted at 37° C. with 5% CO2 for 16-18 hours. Following transfection, cells are washed, treated with trypsin, counted, and seeded in a 96-well plate at 30,000 cells per well in DMEM containing 10% Charcoal/Dextran Treated Fetal Bovine Serum (Gibco Cat. #11054-020) for MDA-MB-453 cells or RPMI 1640 (Gibco Cat. #110835) containing 10% FBS (Invitrogen/GIBCO Life Science) for 22 RV1 cells.
Following transfection, cells were incubated in the absence (blank) or presence (control) of 3 nM DHT (Sigma, Cat. #A-8380) and in the presence or absence of the standard antiandrogen bicalutamide or test compounds ranging in concentrations from 10^−10 to 10^−5M. Duplicates were used for each sample. The compound dilutions were performed by the Tecan Genesis (Tecan, Triangle Park, N.C.). After a 48 hour incubation, luciferase activity was measured using the Steady-Glo Luciferase Assay System (Promega, Cat. #E2550) according to manufacturer's specifications and luminescence was measured on a Packard TopCount (PerkinElmer). For each luciferase sample reading, the percent control (in absence of compounds) was calculated as: % Control=100×[averagesample−averageblank]/[averagecontrol−averageblank] Data was plotted and the IC50 value was defined as the concentration of compound that inhibited 50% of the luciferase activity for the controls.

wild type AR = target: T2, wild type AR (Homo sapiens, UniProt P10275); test: AR Binding Assay (whole cell, MDA-MB-453, competition with [3H]-DHT); conditions: MDA-MB-453 cells, competition with 2 nM [3H]-DHT, Cheng-Prusoff
T2 sequence (P10275 1-920 Q868H): T1 sequence (P10275 1-920) with Q868H
Description: For the whole cell binding assay, human breast adenocarcinoma MDA-MB-453 cells (American Type Culture Collection, Rockville, Md., ATCC #: HTB-131), expressing a functional endogenous wild type AR, are grown to near confluency in T-225 tissue culture flasks containing Dulbecco's Modified Eagle Medium (DMEM) (Mediatech CAT #45000-668) supplemented with 10% fetal bovine serum (FBS) (Invitrogen/GIBCO Life Science). In order to remove any endogenous ligand that might be complexed with the receptor in the cells, the tissue culture media is removed and the cells are incubated overnight at 37° C. in serum-free DMEM. The next day, cells are rinsed with magnesium and calcium free Phosphate Buffered Saline (PBS) (Invitrogen/GIBCO Life Science), harvested using Cell Stripper Buffer (Mediatech) and re-suspended in serum-free DMEM to achieve a final assay concentration of 4×10^5 cells/well of a 96-well assay plate. […] After the remaining media is removed, cells are washed three times with PBS and harvested onto UniFilter GF/B plates (PerkinElmer).
Two replicates are used for each sample. After 90 minutes at room temperature, cells are harvested by filtering through a GF/B filter plate (PerkinElmer) followed by washing with ice-cold 1×PBS (without calcium and magnesium) to remove unbound label. […] After correcting for non-specific binding, IC50 values are determined. The IC50 value is defined as the concentration of competing ligand needed to reduce specific binding by 50%. […] The Ki values are determined by application of the Cheng-Prusoff equation to the IC50 values where: […]
See e.g., D. Rodbard, Mathematics and Statistics of Ligand Assays: An Illustrated Guide: In: J. Langon and J. J. Clapp, eds., Ligand Assay, Masson Publishing U.S.A., Inc., New York, pp. 45-99 (1981).

SMILES	pIC50 (androgen receptor (AR))	pKi (wild type AR)
N#Cc1ccc(N2C[C@H]3[C@@H]4O[C@@H](C[C@H]4O)[C@H]3S2(=O)=O)cc1C(F)(F)F (racemic) [Example 10iii]	5.08	6.25
N#Cc1ccc(N2CC3C([C@@H]4CC[C@H]3O4)S2(=O)=O)cc1C(F)(F)F (stereo in doubt) [Example 6, 4-((1S,2R,6R,7R)-3,3-dioxido-10-oxa-3-thia-4-azatricyclo[5.2.1.0^2,6]dec-4-yl)-2-(trifluoromethyl)benzonitrile]	6.70	7.64
C[C@@]12C=C[C@@H](O1)[C@@H]1CN(c3ccc(C#N)c(C(F)(F)F)c3)S(=O)(=O)[C@@H]12 (racemic) [Example 21ii, rac-4-((1R,2R,6R,7S)-1-methyl-3,3-dioxido-10-oxa-3-thia-4-azatricyclo[5.2.1.0^2,6]dec-8-en-4-yl)-2-(trifluoromethyl)benzonitrile]	5.95	6.84
C[C@]12[C@H](CN(c3ccc(C#N)c(C(F)(F)F)c3)S1(=O)=O)[C@@H]1C=C[C@H]2O1 [Example 4, 4-((1R,2R,6R,7S)-2-methyl-3,3-dioxido-10-oxa-3-thia-4-azatricyclo[5.2.1.0^2,6]dec-8-en-4-yl)-2-(trifluoromethyl)benzonitrile]	5.85	6.66
COC(=O)N[C@@H]1C[C@@H]2O[C@H]1[C@@H]1CN(c3ccc(C#N)c(C(F)(F)F)c3)S(=O)(=O)[C@@H]12 (racemic) [Example 26i, methyl rac-((1R,2R,6R,7R,8S)-4-(4-cyano-3-(trifluoromethyl)phenyl)-3,3-dioxido-10-oxa-3-thia-4-azatricyclo[5.2.1.0^2,6]dec-8-yl)carbamate]	5.50	6.58
N#Cc1ccc(N2C[C@H]3[C@@H]4O[C@@H](C[C@H]4O)[C@H]3S2(=O)=O)cc1C(F)(F)F (racemic) [Example 10ii, rac-4-((1R,2R,6R,7R,8S)-8-hydroxy-3,3-dioxido-10-oxa-3-thia-4-azatricyclo[5.2.1.0^2,6]dec-4-yl)-2-(trifluoromethyl)benzonitrile]	5.12	6.13
C[C@]12CC[C@](C)(O1)[C@@H]1[C@H]2CN(c2ccc(C#N)c(C(F)(F)F)c2)S1(=O)=O (racemic) [Example 18, rac-4-((1R,2R,6R,7S)-1,7-dimethyl-3,3-dioxido-10-oxa-3-thia-4-azatricyclo[5.2.1.0^2,6]dec-4-yl)-2-(trifluoromethyl)benzonitrile]	5.87	6.65
N#Cc1ccc(N2C[C@@H]3[C@@H]4O[C@@H](C[C@@H]4O)[C@@H]3S2(=O)=O)cc1C(F)(F)F (single isomer, unassigned) [Example 37i]	6.81	8.00
N#Cc1ccc(N2C[C@@H]3[C@@H]([C@@H]4O[C@H]3C[C@@H]4O)S2(=O)=O)cc1C(F)(F)F (single isomer, unassigned) [Example 38ii]	6.85	8.00
N#Cc1ccc(N2C[C@H]3[C@H]([C@H]4O[C@@H]3C[C@H]4F)S2(=O)=O)cc1C(F)(F)F [Example 14, 4-((1S,2R,6R,7R,9R)-9-fluoro-3,3-dioxido-10-oxa-3-thia-4-azatricyclo[5.2.1.0^2,6]dec-4-yl)-2-(trifluoromethyl)benzonitrile]	6.84	7.96
N#Cc1ccc(N2C[C@H]3[C@H]4O[C@H]([C@@H]5O[C@@H]54)[C@H]3S2(=O)=O)cc1C(F)(F)F [Example 9, 4-((1R,2S,6S,7R,8R,10R)-3,3-dioxido-9,11-dioxa-3-thia-4-azatetracyclo[5.3.1.0^2,6.0^8,10]undec-4-yl)-2-(trifluoromethyl)benzonitrile]	5.58	7.04
COC(=O)N[C@@H]1C[C@H]2O[C@@H]1[C@H]1[C@@H]2CN(c2ccc(C#N)c(C(F)(F)F)c2)S1(=O)=O [Example 41i, methyl((1S,2R,6R,7R,9R)-4-(4-cyano-3-(trifluoromethyl)phenyl)-3,3-dioxido-10-oxa-3-thia-4-azatricyclo[5.2.1.0^2,6]dec-9-yl)carbamate]	5.08	6.45
